# Experimental data taken from PMC7108740, “Exploring the molecular structures that confer ligand selectivity for galanin type II and III receptors” (PLoS ONE, 2020).
# Substitutions are numbered along the chain they refer to. Ends that are not written are not given here.
# Key:
# Assay type in all cases: cell-based
# [1] = biological target: T1, human GALR2 (Homo sapiens, UniProt O43603); assay: SRE-luc luciferase assay, WT GALR2; conditions: SRE-luc in HEK293 Gqi cells, ligand 6 h, mean ± SE, at least three independent experiments, SEM
# T1 construct: host or cells: HEK293 cells stably expressing Gqi
# T1 sequence (O43603 1-387): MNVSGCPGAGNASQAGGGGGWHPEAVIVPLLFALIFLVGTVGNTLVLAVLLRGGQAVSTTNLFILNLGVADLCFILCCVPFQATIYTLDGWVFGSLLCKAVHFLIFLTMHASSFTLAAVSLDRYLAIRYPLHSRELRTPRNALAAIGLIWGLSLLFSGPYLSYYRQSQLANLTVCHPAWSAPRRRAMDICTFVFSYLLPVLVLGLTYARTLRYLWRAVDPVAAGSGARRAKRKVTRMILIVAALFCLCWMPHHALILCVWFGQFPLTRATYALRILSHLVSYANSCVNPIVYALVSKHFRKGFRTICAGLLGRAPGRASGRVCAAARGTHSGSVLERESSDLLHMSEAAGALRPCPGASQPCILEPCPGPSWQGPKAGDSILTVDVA
# Excerpt: (§1) The pcDNA3.1 vector was purchased from Invitrogen (San Diego, CA, USA). The serum response element (SRE)-luciferase (SRE-luc) vector containing a single copy of the SRE (CCATATTAGG) conjugated with luciferase was purchased from Stratagene (La Jolla, CA, USA). The cDNAs for human GALR1, GALR2, and GALR3 were obtained from BRN SCIENCE, Inc. The cDNAs were inserted into the EcoRⅠ and XhoⅠ sites of pcDNA3.1.
# (§2) HEK293 cells stably expressing the Gqi construct, which allows induction of Gq-dependent signaling pathways upon activation of a Gi-coupled receptor [14, 30], were maintained in Dulbecco's Modified Eagle's Medium (DMEM) in the presence of 10% fetal bovine serum and 1% penicillin and streptomycin. For all transfections, 200 ng DNA (100 ng receptor and 100 ng SRE-luc) mixed with lipofectamine 2000 was applied to 60–80% confluent cells on a multi-well plate according to the manufacturer's instructions (Invitrogen, Carlsbad, CA).
# (§3) For luciferase assays, HEK293 Gqi cells were seeded on 48-well plates at a density of 2.5 × 10^4 cells/well one day before transfection. A mixture including 100 ng SRE-luc reporter construct, 100 ng expression plasmid, and lipofectamine 2000 reagent in diluted Opti-MEM (Gibco) was incubated at room temperature for 20 min and then added into each well according to the manufacturer's instructions (Invitrogen, CA, USA). Before exposure to the ligands, the cells were maintained in serum-free DMEM for 16–18 h. Approximately 48 h after transfection, the cells were treated with ligand for 6 h. The cells were then lysed by the addition of 100 μl lysis buffer. The luciferase activity in 50 μl cell extract was determined using a luciferase assay system according to the standard protocol for the Synergy 2 Multi-Mode Microplate Reader (BioTek, Winooski, VT, USA).
# (§4) Data analysis was performed by non-linear regression with a sigmoidal dose-response curve. The concentrations of agonists that induced half-maximal stimulation (EC50) were calculated using the GraphPad PRISM5 software (GraphPad software, Inc., San Diego, CA). All data are presented as the mean ± standard error (SE) of at least three independent experiments.
# [2] = biological target: T2, GALR3 septuple (Homo sapiens, UniProt O60755, A190V/A191F/C272L/G192S/L100F/Y103F/Y107H); assay: SRE-luc luciferase assay, GALR3 septuple mutant; conditions: SRE-luc in HEK293 Gqi cells, ligand 6 h, mean ± SE, SEM
# T2 construct: expressed in transfected cells; host or cells: HEK293 cells stably expressing pGlosensor-22F cAMP plasmid
# T2 sequence (O60755 1-368 L100F/Y103F/Y107H/A190V/A191F/G192S/C272L): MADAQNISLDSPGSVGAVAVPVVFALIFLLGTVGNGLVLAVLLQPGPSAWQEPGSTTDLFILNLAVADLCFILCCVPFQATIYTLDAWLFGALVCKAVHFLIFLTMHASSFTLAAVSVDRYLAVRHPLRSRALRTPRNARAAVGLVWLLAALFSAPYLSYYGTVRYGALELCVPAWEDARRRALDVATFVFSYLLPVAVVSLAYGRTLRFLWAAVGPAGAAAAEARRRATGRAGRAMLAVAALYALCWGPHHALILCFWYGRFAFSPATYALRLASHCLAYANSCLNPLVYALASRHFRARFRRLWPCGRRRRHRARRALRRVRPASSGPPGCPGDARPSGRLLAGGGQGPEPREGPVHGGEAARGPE
# Excerpt: For domain swapping between GALR2 and GALR3, individual cDNA fragments of interest were amplified by polymerase chain reaction (PCR) with Pfu polymerase (ELPIS Biotech, Daejeon, Korea) and two specific primers, one corresponding to the 5' or 3' end of the GALR2 or GALR3 cDNA and the other to the region of overlap between the two receptors. The two resulting fragments, one from GALR2 and the other from GALR3, were subjected to a second round of PCR to generate the chimeric cDNAs. To construct single, double-, triple-, pentuple-, hextuple-, and septuple-mutant receptors, amino acids of GALR3 were substituted for the amino acids at the corresponding positions in GALR2 using PCR-based site-directed mutagenesis. […]
# For luciferase assays, HEK293 Gqi cells were seeded on 48-well plates at a density of 2.5 × 10^4 cells/well one day before transfection. […] The luciferase activity in 50 μl cell extract was determined using a luciferase assay system according to the standard protocol for the Synergy 2 Multi-Mode Microplate Reader (BioTek, Winooski, VT, USA).
# Data analysis was performed by non-linear regression with a sigmoidal dose-response curve. The concentrations of agonists that induced half-maximal stimulation (EC50) were calculated using the GraphPad PRISM5 software (GraphPad software, Inc., San Diego, CA). […]
# [3] = biological target: T2, GALR3 septuple; assay: cAMP assay (inhibition of forskolin-induced cAMP), GALR3 septuple mutant; conditions: Glosensor-22F cAMP HEK293 cells, agonist 10 min then forskolin 10 μM, mean ± SE, SEM
# Method: SPX-induced or Qu-SPX-induced cyclic adenosine monophosphate (cAMP) mobilization was measured in HEK293 cells stably expressing the pGlosensor^TM-22F cAMP plasmid (Promega Corp., Madison, WI, USA). The Glosensor-22F cAMP HEK293 cells were seeded on 96-well plates at a density of 2.0 × 10^4 cells/well 24 h before transfection. A mixture including 100 ng expression plasmid and lipofectamine 2000 reagent in diluted Opti-MEM (Gibco) was incubated at room temperature for 20 min. The mixtures were added into each well according to the manufacturer's instructions (Invitrogen, CA, USA). After 48 h, Glosensor cAMP substrates were added to the transfected cells in CO2-independent media. After 2 h, the cells were incubated with a range of agonist concentrations or vehicle for 10 min and then exposed to foskolin (10 μM). Luminescence was measured for up to 30 min using a Microplate Reader (BioTek, Winooski, VT, USA).
# as §4, with “experiments. […]” for “experiments.”
# [4] = biological target: T3, GALR3 single mutant A^264P (Homo sapiens, UniProt O60755, A264P); assay: SRE-luc luciferase assay, GALR3 A264P; conditions: GALR3 A^264P; SRE-luc in HEK293 Gqi cells, ligand 6 h; mean ± S.E.; SEM
# T3 construct: expressed in transfected cells; host or cells: HEK293 cells stably expressing Gqi
# Excerpt: (§5) For domain swapping between GALR2 and GALR3, individual cDNA fragments of interest were amplified by polymerase chain reaction (PCR) with Pfu polymerase (ELPIS Biotech, Daejeon, Korea) and two specific primers, one corresponding to the 5' or 3' end of the GALR2 or GALR3 cDNA and the other to the region of overlap between the two receptors. The two resulting fragments, one from GALR2 and the other from GALR3, were subjected to a second round of PCR to generate the chimeric cDNAs. To construct single, double-, triple-, pentuple-, hextuple-, and septuple-mutant receptors, amino acids of GALR3 were substituted for the amino acids at the corresponding positions in GALR2 using PCR-based site-directed mutagenesis. All of the chimeric constructs were cloned into the pcDNA3 expression vector at HindⅢ and XbaⅠ sites. The DNA sequences of the chimeras were verified by automatic sequencing. […] The luciferase activity in 50 μl cell extract was determined using a luciferase assay system according to the standard protocol for the Synergy 2 Multi-Mode Microplate Reader (BioTek, Winooski, VT, USA). […] The concentrations of agonists that induced half-maximal stimulation (EC50) were calculated using the GraphPad PRISM5 software (GraphPad software, Inc., San Diego, CA). […]
# [5] = biological target: T4, GALR3 single mutant F^265P (Homo sapiens, UniProt O60755); assay: SRE-luc luciferase assay, GALR3 F265P; conditions: GALR3 F^265P; SRE-luc in HEK293 Gqi cells, ligand 6 h; mean ± S.E.; SEM
# T4 construct: expressed in transfected cells; host or cells: HEK293 cells stably expressing Gqi
# Excerpt: as §5
# [6] = biological target: T5, GALR3 single mutant S^266T (Homo sapiens, UniProt O60755, S266T); assay: SRE-luc luciferase assay, GALR3 S266T; conditions: GALR3 S^266T; SRE-luc in HEK293 Gqi cells, ligand 6 h; mean ± S.E.; SEM
# T5 construct: expressed in transfected cells; host or cells: HEK293 cells stably expressing Gqi
# Excerpt: as §5
# [7] = biological target: T6, GALR3 single mutant P^267R (Homo sapiens, UniProt O60755, P267R); assay: SRE-luc luciferase assay, GALR3 P267R; conditions: GALR3 P^267R; SRE-luc in HEK293 Gqi cells, ligand 6 h; mean ± S.E.; SEM
# T6 construct: expressed in transfected cells; host or cells: HEK293 cells stably expressing Gqi
# Excerpt: as §5
# [8] = biological target: T7, GALR3 single mutant C^272L (Homo sapiens, UniProt O60755, C272L); assay: SRE-luc luciferase assay, GALR3 C272L; conditions: GALR3 C^272L; SRE-luc in HEK293 Gqi cells, ligand 6 h; mean ± S.E.; SEM
# T7 construct: expressed in transfected cells; host or cells: HEK293 cells stably expressing Gqi
# Excerpt: as §5
# [9] = biological target: T8, GALR3 (Homo sapiens, UniProt O60755); assay: SRE-luc luciferase assay, WT GALR3; set-up: host or cells: HEK293 cells stably expressing Gqi; conditions: SRE-luc in HEK293 Gqi cells, ligand 6 h, mean ± SE, at least three independent experiments, SEM
# T8 sequence (O60755 1-368): T2 sequence (O60755 1-368 L100F/Y103F/Y107H/A190V/A191F/G192S/C272L) with F100L, F103Y, H107Y, V190A, F191A, S192G, L272C
# Excerpt: as §1, §2, §3, §4
# T7 sequence (O60755 whole entry C272L): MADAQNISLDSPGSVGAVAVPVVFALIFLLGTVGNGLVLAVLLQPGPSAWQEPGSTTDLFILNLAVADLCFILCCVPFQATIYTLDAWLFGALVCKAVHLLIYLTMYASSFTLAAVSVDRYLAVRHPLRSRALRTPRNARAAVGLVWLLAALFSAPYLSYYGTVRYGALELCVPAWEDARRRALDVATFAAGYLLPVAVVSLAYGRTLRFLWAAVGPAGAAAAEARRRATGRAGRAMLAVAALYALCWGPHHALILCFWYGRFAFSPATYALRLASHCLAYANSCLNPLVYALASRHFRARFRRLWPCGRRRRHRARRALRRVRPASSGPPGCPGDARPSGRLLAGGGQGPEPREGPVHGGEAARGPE
# T5 sequence (O60755 whole entry S266T): as the sequence (O60755 whole entry C272L) above, with S266T, L272C counted along it
# T4 sequence (O60755 whole entry F265L): as the sequence (O60755 whole entry C272L) above, with F265L, L272C counted along it
# T3 sequence (O60755 whole entry A264P): as the sequence (O60755 whole entry C272L) above, with A264P, L272C counted along it
# T6 sequence (O60755 whole entry P267R): as the sequence (O60755 whole entry C272L) above, with P267R, L272C counted along it
EC50 [1],EC50 [2],EC50 [3],EC50 [4],EC50 [5],EC50 [6],EC50 [7],EC50 [8],EC50 [9],Substance
87.1 ± 19.5 nM,1100 ± 163 nM,794 ± 358 nM,–,–,–,–,–,–,NWTPNAALYLFGPQ-NH2 [Qu-SPX]
47.9 ± 11.5 nM,–,–,589 ± 200 nM,457 ± 118 nM,200 ± 29.7 nM,562 ± 173 nM,66.1 ± 22.4 nM,490 ± 118 nM,NWTPQAMLYLFGAQ-NH2 [F^11-SPX]
